Laboratory results published in patent publication US10913738B2 (BRISTOL-MYERS SQUIBB COMPANY, priority 2017, dated 2021).
Like-named read-outs stand apart in the source and are kept apart here.

Assays:
[1] = target: T1, His-GST-TVMV-hRIPK1(1-324) (Homo sapiens, UniProt Q13546); assay: RIPK1 HTRF Binding Assay
T1 construct: The coding region of human RIPK1(1-324) flanked by NdeI site at 5′ end; made in house; host or cells: Spodoptera frugiperda (Sf9) insect cells, baculovirus
T1 sequence (Q13546 1-324): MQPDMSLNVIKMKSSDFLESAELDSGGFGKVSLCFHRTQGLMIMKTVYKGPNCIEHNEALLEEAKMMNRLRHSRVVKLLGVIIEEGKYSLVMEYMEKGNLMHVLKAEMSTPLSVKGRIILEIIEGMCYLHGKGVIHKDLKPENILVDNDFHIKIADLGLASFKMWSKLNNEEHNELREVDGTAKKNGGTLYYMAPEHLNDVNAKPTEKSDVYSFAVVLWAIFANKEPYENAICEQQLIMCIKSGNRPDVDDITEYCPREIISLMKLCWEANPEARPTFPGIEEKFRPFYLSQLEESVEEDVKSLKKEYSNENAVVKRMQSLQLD

[2] = tested on: MLKL phosphorylation in HT29-L23 human colorectal adenocarcinoma cells; assay: MLKL Phosphorylation High-Content Assay; format: cell-based; conditions: Homo sapiens
Method in brief: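 IC50 and Ymax obtained by 4-parameter logistic fitting of MLKL phosphorylation, measured as mean circ-ring average intensity ratio from high-content images. Staining used an anti-phospho-S358 MLKL antibody overnight at 4° C., following six-hour cell incubation at 37° C.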

[3] = x marks IC50 class 20-200 nM, read-out: RIPK1 HTRF binding 20-200 nM
[4] = x marks IC50 class 20-200 nM, read-out: pMLKL cell activity 20-200 nM
[5] = x marks IC50 class <20 nM, read-out: RIPK1 HTRF binding <20 nM
[6] = x marks IC50 class >200 nM, read-out: pMLKL cell activity >200 nM
[7] = x marks IC50 class <20 nM, read-out: pMLKL cell activity <20 nM

SMILES	IC50 [1, 3]	IC50 [2, 4]	IC50 [1, 5]	IC50 [2, 6]	IC50 [2, 7]
CC(CCNC(=O)c1cc(-c2ccn3nc(N)nc3c2)cnc1N(C)C)c1ccccc1 (stereo not drawn) [Example 64, 5-{2-Amino-[1,2,4]triazolo[1,5-a]pyridin-7-yl}-2-(dimethylamino)-N-(3-phenylbutyl)pyridine-3-carboxamide]	20 to 200 nM	20 to 200 nM			
CC(CCNC(=O)c1cc(-c2ccn3nc(N)nc3c2)cnc1N)c1ccccc1 (stereo not drawn) [Example 65, 2-Amino-5-{2-amino-[1,2,4]triazolo[1,5-a]pyridin-7-yl}-N-(3-phenylbutyl)pyridine-3-carboxamide]		20 to 200 nM	< 20 nM		
CCc1ncc(-c2ccn3nc(N)nc3c2)cc1C(=O)NCCC(C)c1ccccc1 (stereo not drawn) [Example 66, 5-{2-Amino-[1,2,4]triazolo[1,5-a]pyridin-7-yl}-2-ethyl-N-(3-phenylbutyl)pyridine-3-carboxamide]		20 to 200 nM	< 20 nM		
CC(CCNC(=O)c1cc(-c2ccn3nc(N)nc3c2)nc2ccc(F)cc12)c1ccccc1 (stereo not drawn) [Example 67, 2-{2-Amino-[1,2,4]triazolo[1,5-a]pyridin-7-yl}-6-fluoro-N-(3-phenylbutyl)quinoline-4-carboxamide]	20 to 200 nM	20 to 200 nM			
Nc1nc2cc(-c3cc(C(=O)Nc4cnn(Cc5ccccc5)c4)c4cc(F)ccc4n3)ccn2n1 [Example 68, 2-{2-Amino-[1,2,4]triazolo[1,5-a]pyridin-7-yl}-N-(1-benzyl-1H-pyrazol-4-yl)-6-fluoroquinoline-4-carboxamide]	20 to 200 nM	20 to 200 nM			
CCCOc1ncc(-c2ccn3nc(N)nc3c2)cc1C(=O)NCCC(C)c1ccccc1 (stereo not drawn) [Example 69, 5-{2-Amino-[1,2,4]triazolo[1,5-a]pyridin-7-yl}-N-(3-phenylbutyl)-2-propoxypyridine-3-carboxamide]			< 20 nM	> 200 nM	
CNc1ncc(-c2ccn3nc(N)nc3c2)cc1C(=O)NCCC(C)c1ccccc1 (stereo not drawn) [Example 70, 5-{2-Amino-[1,2,4]triazolo[1,5-a]pyridin-7-yl}-2-(methylamino)-N-(3-phenylbutyl)pyridine-3-carboxamide]		20 to 200 nM	< 20 nM		
CC(CCNC(=O)c1ccnc(-c2ccn3nc(N)nc3c2)c1)c1ccccc1 (stereo not drawn) [Example 72, 2-{2-Amino-[1,2,4]triazolo[1,5-a]pyridin-7-yl}-N-(3-phenylbutyl)pyridine-4-carboxamide]	20 to 200 nM			> 200 nM	
CC(CCNC(=O)c1cncc(-c2ccn3nc(N)nc3c2)c1)c1ccccc1 (stereo not drawn) [Example 73, 5-{2-Amino-[1,2,4]triazolo[1,5-a]pyridin-7-yl}-N-(3-phenylbutyl)pyridine-3-carboxamide]			< 20 nM	> 200 nM	
COc1ncc(-c2ccn3nc(N)nc3c2)cc1C(=O)NCCC(O)c1ccc(F)c(F)c1 (stereo not drawn) [Example 77, 5-{2-Amino-[1,2,4]triazolo[1,5-a]pyridin-7-yl}-N-[3-(3,4-difluorophenyl)-3-hydroxypropyl]-2-methoxypyridine-3-carboxamide]	20 to 200 nM	20 to 200 nM			
COc1ncc(-c2ccn3nc(N)nc3c2)cc1C(=O)NCCC(O)c1ccc(F)cc1 (stereo not drawn) [Example 78, 5-{2-Amino-[1,2,4]triazolo[1,5-a]pyridin-7-yl}-N-[3-(4-fluorophenyl)-3-hydroxypropyl]-2-methoxypyridine-3-carboxamide]	20 to 200 nM	20 to 200 nM			
COc1ncc(-c2ccn3nc(N)nc3c2)cc1C(=O)NCc1ccc(F)cc1OC1CCOCC1 [Example 80, 5-{2-Amino-[1,2,4]triazolo[1,5-a]pyridin-7-yl}-N-{[4-fluoro-2-(oxan-4-yloxy)phenyl]methyl}-2-methoxypyridine-3-carboxamide]		20 to 200 nM	< 20 nM		
COc1ncc(-c2ccn3nc(N)nc3c2)cc1C(=O)NCc1ccccc1OCC1CC1 [Example 81, 5-{2-Amino-[1,2,4]triazolo[1,5-a]pyridin-7-yl}-N-{[2-(cyclopropylmethoxy)phenyl]methyl}-2-methoxypyridine-3-carboxamide]			< 20 nM		< 20 nM
COc1ncc(-c2ccn3nc(N)nc3c2)cc1C(=O)Nc1cnn(Cc2ccccc2)c1 [Example 84, 5-{2-Amino-[1,2,4]triazolo[1,5-a]pyridin-7-yl}-N-(1-benzyl-1H-pyrazol-4-yl)-2-methoxypyridine-3-carboxamide]	20 to 200 nM	20 to 200 nM			
CCc1ncc(-c2ccn3nc(N)nc3c2)cc1C(=O)NCc1cc(OC(F)(F)F)ccc1F [Example 86, 5-{2-amino-[1,2,4]triazolo[1,5-a]pyridin-7-yl}-2-ethyl-N-{[2-fluoro-5-(trifluoromethoxy)phenyl]methyl}pyridine-3-carboxamide]		20 to 200 nM	< 20 nM		
[2H]C([2H])(NC(=O)c1cc(-c2ccn3nc(N)nc3c2)cnc1OC)c1cc(OC(F)(F)F)ccc1F [Example 87, 5-{2-amino-[1,2,4]triazolo[1,5-a]pyridin-7-yl}-N-{[2-fluoro-5-(trifluoromethoxy)phenyl] (deutero)methyl}-2-methoxypyridine-3-carboxamide]		20 to 200 nM	< 20 nM		
[2H]C([2H])(NC(=O)c1cc(-c2ccn3nc(N)nc3c2)cnc1OC)c1cc(F)cc(F)c1OCC1CC1 [Example 88, 5-{2-amino-[1,2,4]triazolo[1,5-a]pyridin-7-yl}-N-{[2-(cyclopropylmethoxy)-3,5-difluorophenyl](deutero)methyl}-2-methoxypyridine-3-carboxamide]			< 20 nM		< 20 nM
[2H]C([2H])([2H])Oc1ncc(-c2ccn3nc(N)nc3c2)cc1C(=O)NCc1ccccc1OC(F)(F)F [Example 90, 5-{2-amino-[1,2,4]triazolo[1,5-a]pyridin-7-yl}-2-(deutero)methoxy-N-{[2-(trifluoromethoxy)phenyl]methyl}pyridine-3-carboxamide]		20 to 200 nM	< 20 nM		
[2H]C([2H])([2H])Oc1ncc(-c2ccn3nc(N)nc3c2)cc1C(=O)NCc1cc(C(F)(F)F)ccc1F [Example 91, 5-{2-amino-[1,2,4]triazolo[1,5-a]pyridin-7-yl}-N-{[2-fluoro-5-(trifluoromethyl)phenyl]methyl}-2-(deutero)methoxypyridine-3-carboxamide]	20 to 200 nM	20 to 200 nM			
[2H]C([2H])([2H])Oc1ncc(-c2ccn3nc(N)nc3c2)cc1C(=O)NCc1cc(OC(F)(F)F)ccc1F [Example 92, 5-{2-amino-[1,2,4]triazolo[1,5-a]pyridin-7-yl}-N-{[2-fluoro-5-(trifluoromethoxy)phenyl]methyl}-2-(deutero)methoxypyridine-3-carboxamide]			< 20 nM		< 20 nM
[2H]C([2H])([2H])Oc1ncc(-c2ccn3nc(N)nc3c2)cc1C(=O)NC([2H])([2H])c1cc(OC(F)(F)F)ccc1F [Example 93, 5-{2-amino-[1,2,4]triazolo[1,5-a]pyridin-7-yl}-N-{[2-fluoro-5-(trifluoromethoxy)phenyl] (deutero)methyl}-2-(deutero)methoxypyridine-3-carboxamide]		20 to 200 nM	< 20 nM		
[2H]C([2H])([2H])Oc1ncc(-c2ccn3nc(N)nc3c2)cc1C(=O)NCc1cc(F)cc(F)c1OCC1CC1 [Example 94, 5-{2-amino-[1,2,4]triazolo[1,5-a]pyridin-7-yl}-N-{[2-(cyclopropylmethoxy)-3,5-difluorophenyl]methyl}-2-(deutero)methoxypyridine-3-carboxamide]			< 20 nM		< 20 nM
[2H]C([2H])([2H])c1ncc(-c2ccn3nc(N)nc3c2)cc1C(=O)NCc1cc(OC(F)(F)F)ccc1F [Example 96, 5-{2-amino-[1,2,4]triazolo[1,5-a]pyridin-7-yl}-N-{[2-fluoro-5-(trifluoromethoxy)phenyl]methyl}-2-(deutero)methylpyridine-3-carboxamide]		20 to 200 nM	< 20 nM		
COc1ncc(-c2ccn3nc(N)nc3c2)cc1C(=O)N[C@H]1C[C@@H]1c1ccccc1 [Example 100, 5-{2-amino-[1,2,4]triazolo[1,5-a]pyridin-7-yl}-2-methoxy-N-[(1S,2R)-2-phenylcyclopropyl]pyridine-3-carboxamide]	20 to 200 nM			> 200 nM	
COc1ncc(-c2ccn3nc(N)nc3c2)cc1C(=O)NCc1ccc(F)cc1OC(=O)N(C)C [Example 103]	20 to 200 nM			> 200 nM	
COc1ncc(-c2ccn3nc(N)nc3c2)cc1C(=O)NCc1ccccc1S(=O)(=O)C(C)C [Example 104, 5-{2-amino-[1,2,4]triazolo[1,5-a]pyridin-7-yl}-2-methoxy-N-{[2-(propane-2-sulfonyl)phenyl]methyl}pyridine-3-carboxamide]			< 20 nM	> 200 nM	
COc1ncc(-c2ccn3nc(N)nc3c2)cc1C(=O)NCc1ccccc1CN1CCOCC1 [Example 105, 5-{2-amino-[1,2,4]triazolo[1,5-a]pyridin-7-yl}-2-methoxy-N-({2-[(morpholin-4-yl)methyl]phenyl}methyl)pyridine-3-carboxamide]			< 20 nM	> 200 nM	
